The source of these data is US4818753A, “Synthesis and method of use for 2, 4 diaminoquinazoline” (SRI International, priority 1987, dated 1989).

Values after ≈ are worked out from the molar mass of the structure shown. Read-outs that look alike come from different tables or passages of the source.

Type in all cases: cell-based
The subject of one assay is Candida albicans (10231). In words: Broth dilution assay, F1. On the procedure:
(§1) Both broth dilution and agar dilution assays were used to assess the antifungal activity of the compounds of the invention. The cultures were maintained in Sabouraud dextrose broth (SDB) and diluted with […]. 2.5 l of SDB was prepared and distributed into sterile vessels as follows: 49 ml into 1 vessel, 27 ml into 3 vessels, 45 ml into 2 vessels.
(§2) Five mg/ml concentration of each compound was prepared using DMSO as the solvent; warming and sonication were necessary to dissolve each compound completely. The compounds were then diluted in SDB according to the following protocol:
(§3) 5. 1 ug/ml--5 ml (3)+45 ml SDB
(§4) The compound at each concentration in SDB was then dispensed into 6 tubes each containing 4 ml […]. Controls (without any compound) were also prepared to insure that the solvent itself was not fungicidal or fungistatic.
(§5) Cultures were grown in SDB for 24 h at 30° C. C. albicans and C. neoformans were diluted 1:10 in SDB before inoculation. Inoculation volume for yeasts was 2 drops of diluted cells per tube. The fungal cultures were homogenized before inoculation. The same volume was added, but without dilution. All tubes were incubated at room temperature on a rotating wheel. After 16 h of incubation at room temperature, the fungistatic assay was set up on agar plates. […] Yeasts were inoculated onto SDA (the corresponding agar) plates and fungi onto mycosel agar plates. These plates were then incubated at room temperature.
(In broth dilution the organism is exposed to a series of concentrations in liquid medium.)

A further assay relates to Candida albicans (14053). Put plainly: Broth dilution assay, F2. On the procedure: as §1, §2, §3, §4, §5
In assay [1] the test system is Cryptococcus neoformans (13690). Put plainly: Broth dilution assay, F3. On the procedure: as §1, §2, §3, §4, §5
Assay [2] deals with Epidermophyton floccosum (15693). Put plainly: Broth dilution assay, F4. On the procedure:
as §1, §2, §3, §4, §5

For assay [3], the system named is Trichophyton mentagrophytes (11481). Put plainly: Broth dilution assay, F6. On the procedure:
as §1, §2, §3, §4, §5

Assay [4] deals with Microsporum gypseum (14683). Put plainly: Broth dilution assay, F12. The settings on record: Nannizzia gypsea. On the procedure:
as §1, §2, §3, §4, §5

Assay [5] relates to Penicillium citrinum (9849). In words: Broth dilution assay, F19. As to conditions: for MIC: Table 1, F19, Sabouraud Dextrose Broth pH 5.5, read-out: Minimum Inhibitory Concentration (S, fungistatic). On the procedure:
as §1, §2, §3, §4, §5

[6] abbreviates: Table 1, F1, Sabouraud Dextrose Broth pH 5.5, read-out: Minimum Inhibitory Concentration (S, fungistatic).
The mark [7] stands for this setting: Table 1, F1, Sabouraud Dextrose Broth pH 5.5, read-out: Minimum Lethal Concentration (C, fungicidal).
The mark [8] stands for this setting: Table 1, F2, Sabouraud Dextrose Broth pH 5.5, read-out: Minimum Inhibitory Concentration (S, fungistatic).
[9] abbreviates: Table 1, F2, Sabouraud Dextrose Broth pH 5.5, read-out: Minimum Lethal Concentration (C, fungicidal).
Where [10] appears, read: Table 1, F3, Sabouraud Dextrose Broth pH 5.5, read-out: Minimum Inhibitory Concentration (S, fungistatic).
[11] abbreviates: Table 1, F3, Sabouraud Dextrose Broth pH 5.5, read-out: Minimum Lethal Concentration (C, fungicidal).
[12] abbreviates: Table 1, F4, Sabouraud Dextrose Broth pH 5.5, read-out: Minimum Inhibitory Concentration (S, fungistatic).
[13] abbreviates: Table 1, F4, Sabouraud Dextrose Broth pH 5.5, read-out: Minimum Lethal Concentration (C, fungicidal).
Setting [14] is: Table 1, F6, Sabouraud Dextrose Broth pH 5.5, read-out: Minimum Inhibitory Concentration (S, fungistatic).
Setting [15] is: Table 1, F6, Sabouraud Dextrose Broth pH 5.5, read-out: Minimum Lethal Concentration (C, fungicidal).
The mark [16] stands for this setting: Table 1, Sabouraud Dextrose Broth pH 5.5, read-out: Minimum Inhibitory Concentration (S, fungistatic).
[17] abbreviates: Table 1, Sabouraud Dextrose Broth pH 5.5, read-out: Minimum Lethal Concentration (C, fungicidal).
Setting [18] is: Table 1, F19, Sabouraud Dextrose Broth pH 5.5, read-out: Minimum Lethal Concentration (C, fungicidal).
Where [19] appears, read: pH 5.5, read-out: Minimum Inhibitory Concentration (S, fungistatic).
The mark [20] stands for this setting: pH 5.5, read-out: Minimum Lethal Concentration (C, fungicidal).
Where [21] appears, read: pH 5.5, read-out: S Fungistatic.

Consider `CCCCc1ccc2nc(N)nc(N)c2c1C` [--CH2 (CH2)2 CH3], for which the MIC was 100 µg/mL (≈ 434 µM) in the assay on Candida albicans (10231) (setting [6]); 100 µg/mL (≈ 434 µM) with Candida albicans (14053) (setting [8]); 30 µg/mL (≈ 130 µM) in assay [1] (setting [10]); 10 µg/mL (≈ 43.4 µM) in assay [2] (setting [12]); more than 30 µg/mL in assay [3] (setting [14]); 30 µg/mL (≈ 130 µM) in assay [4] (setting [16]). Also, in assay [5], the MIC worked out at 100 µg/mL (≈ 434 µM). Also, the MFC in the assay with Candida albicans (10231) (setting [7]) is more than 100 µg/mL; with Candida albicans (14053) (setting [9]), 100 µg/mL (≈ 434 µM); in assay [1] (setting [11]), 30 µg/mL (≈ 130 µM); in assay [2] (setting [13]), 30 µg/mL (≈ 130 µM); in assay [3] (setting [15]), more than 30 µg/mL; in assay [4] (setting [17]) it was more than 30 µg/mL. In assay [5] (setting [18]), the MFC is more than 100 µg/mL.

For the compound `CCCCCc1ccc2nc(N)nc(N)c2c1C` [--CH2 (CH2)3 CH 3], the MIC in the assay with Candida albicans (10231) (setting [6]) was 100 µg/mL (≈ 409 µM); in the assay on Candida albicans (14053) (setting [8]) it was 100 µg/mL (≈ 409 µM); in assay [1] (setting [10]) it was 10 µg/mL (≈ 40.9 µM); in assay [2] (setting [12]), 10 µg/mL (≈ 40.9 µM); in assay [3] (setting [14]) it was 30 µg/mL (≈ 123 µM); in assay [4] (setting [16]), 30 µg/mL (≈ 123 µM). For the same compound, the MIC in assay [5] amounted to 100 µg/mL (≈ 409 µM). The MFC in the assay on Candida albicans (10231) (setting [7]) is 100 µg/mL (≈ 409 µM); with Candida albicans (14053) (setting [9]), 100 µg/mL (≈ 409 µM); in assay [1] (setting [11]), 30 µg/mL (≈ 123 µM); in assay [2] (setting [13]) it was 30 µg/mL (≈ 123 µM); in assay [3] (setting [15]), more than 30 µg/mL; in assay [4] (setting [17]), more than 30 µg/mL. In addition, in assay [5] (setting [18]), the MFC turned out to be 100 µg/mL (≈ 409 µM).

On to `CCCc1ccc2nc(N)nc(N)c2c1C` [--CH2 CH2 CH3], for which the MIC was more than 100 µg/mL with Candida albicans (10231) (setting [6]); more than 100 µg/mL in the assay on Candida albicans (14053) (setting [8]); more than 100 µg/mL in assay [1] (setting [10]); 30 µg/mL (≈ 139 µM) in assay [2] (setting [12]); more than 30 µg/mL in assay [3] (setting [14]); more than 30 µg/mL in assay [4] (setting [16]). In addition, the MIC in assay [5] was more than 100 µg/mL. Moreover, the MFC with Candida albicans (10231) (setting [7]) is more than 100 µg/mL; in the assay with Candida albicans (14053) (setting [9]), more than 100 µg/mL; in assay [1] (setting [11]), more than 100 µg/mL; in assay [2] (setting [13]), more than 30 µg/mL; in assay [3] (setting [15]), more than 30 µg/mL; in assay [4] (setting [17]), more than 30 µg/mL. Moreover, the MFC in assay [5] (setting [18]) is more than 100 µg/mL.

For the compound `Cc1c(CCC(C)C)ccc2nc(N)nc(N)c12` [--CH2 CH2 CH(CH3)2], the MIC with Candida albicans (10231) (setting [6]) is 100 µg/mL (≈ 409 µM); in the assay on Candida albicans (14053) (setting [8]) it was 100 µg/mL (≈ 409 µM); in assay [1] (setting [10]) it was 10 µg/mL (≈ 40.9 µM); in assay [2] (setting [12]), 10 µg/mL (≈ 40.9 µM); in assay [3] (setting [14]), more than 30 µg/mL; in assay [4] (setting [16]), 30 µg/mL (≈ 123 µM). For the same compound, the MIC in assay [5] turned out to be 100 µg/mL (≈ 409 µM). For the same compound, the MFC is 100 µg/mL (≈ 409 µM) in the assay with Candida albicans (10231) (setting [7]); 100 µg/mL (≈ 409 µM) in the assay with Candida albicans (14053) (setting [9]); 30 µg/mL (≈ 123 µM) in assay [1] (setting [11]); 10 µg/mL (≈ 40.9 µM) in assay [2] (setting [13]); more than 30 µg/mL in assay [3] (setting [15]); more than 30 µg/mL in assay [4] (setting [17]). For the same compound, the MFC in assay [5] (setting [18]) was more than 100 µg/mL.

`Cc1cccc2nc(N)nc(N)c12` [H]: the MIC in the assay on Candida albicans (10231) (setting [6]) was more than 100 µg/mL; in the assay with Candida albicans (14053) (setting [8]), more than 100 µg/mL; in assay [1] (setting [10]), more than 100 µg/mL; in assay [2] (setting [12]) it was more than 30 µg/mL; in assay [3] (setting [14]), more than 30 µg/mL; in assay [4] (setting [16]), more than 30 µg/mL. The MIC in assay [5] is more than 100 µg/mL. For the same compound, the MFC in the assay on Candida albicans (10231) (setting [7]) is more than 100 µg/mL; in the assay with Candida albicans (14053) (setting [9]) it was more than 100 µg/mL; in assay [1] (setting [11]), more than 100 µg/mL; in assay [2] (setting [13]), more than 30 µg/mL; in assay [3] (setting [15]) it was more than 30 µg/mL; in assay [4] (setting [17]), more than 30 µg/mL. Moreover, the MFC in assay [5] (setting [18]) is more than 100 µg/mL.

As to `Clc1ccc(COC(Cn2ccnc2)c2ccc(Cl)cc2Cl)c(Cl)c1` (stereo not drawn) [Miconazole, reference compound], the MFC was 100 µg/mL (≈ 240 µM) in the assay on Candida albicans (10231) (pH 5.5, read-out: C Fungicidal); 30 µg/mL (≈ 72.1 µM) in the assay on Candida albicans (10231) (setting [20]); 30 µg/mL (≈ 72.1 µM) in the assay with Candida albicans (14053) (setting [20]); 10 µg/mL (≈ 24 µM) in assay [1] (pH 5.5, read-out: C Fungicidal); 10 µg/mL (≈ 24 µM) in assay [1] (setting [20]); not above 0.3 µg/mL in assay [2] (Table 2, F4, Sabouraud Dextrose Broth pH 5.5, read-out: C Fungicidal). In addition, the MFC in assay [2] (setting [20]) amounted to 1 µg/mL (≈ 2.4 µM); in assay [3] (Table 2, F6, Sabouraud Dextrose Broth pH 5.5, read-out: C Fungicidal), 10 µg/mL (≈ 24 µM); in assay [3] (setting [20]), 30 µg/mL (≈ 72.1 µM); in assay [4] (Table 2, Sabouraud Dextrose Broth pH 5.5, read-out: C Fungicidal), 30 µg/mL (≈ 72.1 µM); in assay [5] (setting [20]) it was 30 µg/mL (≈ 72.1 µM). The MIC in the assay on Candida albicans (10231) (setting [19]) was 10 µg/mL (≈ 24 µM); with Candida albicans (10231) (setting [21]) it was 10 µg/mL (≈ 24 µM); in the assay with Candida albicans (14053) (setting [19]), 30 µg/mL (≈ 72.1 µM); in assay [1] (setting [19]), not above 0.1 µg/mL; in assay [1] (setting [21]), not above 0.3 µg/mL; in assay [2] (setting [12]) it was not above 0.1 µg/mL. The MIC is not above 0.3 µg/mL in assay [2] (Table 2, F4, Sabouraud Dextrose Broth pH 5.5, read-out: S Fungistatic); 1 µg/mL (≈ 2.4 µM) in assay [3] (setting [14]); not above 0.3 µg/mL in assay [3] (Table 2, F6, Sabouraud Dextrose Broth pH 5.5, read-out: S Fungistatic); 3 µg/mL (≈ 7.21 µM) in assay [4] (setting [16]); 1 µg/mL (≈ 2.4 µM) in assay [4] (Table 2, Sabouraud Dextrose Broth pH 5.5, read-out: S Fungistatic); not above 0.1 µg/mL in assay [5].
